For the assay, the system named is P2 synaptosomal fraction from rat brain cortex. Kind of assay: glutamate-induced uptake of 45Ca2+ isotope into synaptosomes. Type of assay: cell-based. An excerpt: Neuroprotective action of new compounds was studied in P2 synaptosomal fraction from rat brain cortex. 5-amino-3-(2-nitroxypropyl)-1,2,4-thiadiazole derivatives were studied in the test on glutamate-induced uptake of ^45Ca^2+ isotope into synaptosomes.

The results in this text go back to patent EP2628734A2, “5-AMINO-1,2,4-THIADIAZOLE DERIVATIVES” (Federalnoe Gosudarstvennoe Bydzhetnoe Uchrezhdenie Nauki …, priority 2010, dated 2012).

Consider `CC(Cc1nsc(N2CCN(c3ccccn3)CC2)n1)O[N+](=O)[O-]` (centres unmarked) [1-[3-(2-Nitroxypropyl)-[1,2,4]-thiadiazol-5-yl]-4-pyridin-2-yl-piperazine], for which the IC50 (glutamate-induced uptake of ^45Ca^2+ into synaptosomes) came out at 16.6 µM. Besides, the inhibition at 100 µM (glutamate-induced uptake, concentration of 100 µM, read-out: inhibition of the uptake of ^45Ca^2+ into synaptosomes vs. a control) was 98%.

What is called IC50 is the concentration needed to halve the response being measured. The inhibition is the percentage by which the read-out fell short of the control.
